We go through 9 compounds from ChEMBL document CHEMBL1201862, “PubChem BioAssay data set” (2004).

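How tested: cells in 96-well plates exposed to compound for 48 hours at five concentrations. Here, GI50 denotes the concentration required for 50% inhibition of growth.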 Active and inactive are the calls of the source. Cut-off read from the data, not from the text of the source: active = GI50 up to about 1.1 µM and inactive = higher.

Test systems include CCRF-CEM; COLO 205; HCC 2998; HOP-62; HT-29; IGROV-1; M14; MDA-MB-231; MOLT-4; NCI-H460; OVCAR-3; OVCAR-4; OVCAR-5; OVCAR-8; SK-MEL-28; SNB-75; SR; SW-620; TK-10; UACC-62.
Holding throughout (assay): NCI tumour cell line growth inhibition, 48 h

Turning to `CCN(CC)CCN1c2ccccc2Sc2ccc3ccccc3c21`, the GI50 is 2.92 µM (inactive) in the assay on CCRF-CEM; 4.75 µM (inactive) in the assay on COLO 205; 2.23 µM (inactive) with HCC 2998; 14.9 µM (inactive) in the assay with HOP-62; 3.18 µM (inactive) with HT-29; 10.2 µM (inactive) in the assay with IGROV-1. Besides, the GI50 was 3.01 µM (inactive) with M14; 6.03 µM (inactive) with MDA-MB-231; 3.74 µM (inactive) in the assay on MOLT-4; 2.07 µM (inactive) with NCI-H460; 11.6 µM (inactive) in the assay on OVCAR-3; 5.36 µM (inactive) in the assay on OVCAR-4. Further, the GI50 in the assay with OVCAR-5 is 9.1 µM (inactive); in the assay with OVCAR-8 it was 12.6 µM (inactive); in the assay on SK-MEL-28, 7.46 µM (inactive); in the assay on SNB-75, 7.06 µM (inactive); in the assay on SR, 4.94 µM (inactive); in the assay with SW-620, 11.4 µM (inactive). The GI50 in the assay with TK-10 was 1.67 µM (inactive); with UACC-62, 8.57 µM (inactive).
For the compound `CC(C)(C)C1=CC(=C(c2ccc(-c3c4nc(c(-c5ccc(C(=C6C=C(C(C)(C)C)C(=O)C(C(C)(C)C)=C6)c6cc(C(C)(C)C)c(O)c(C(C)(C)C)c6)cc5)c5ccc([nH]5)c(-c5ccc(C(=C6C=C(C(C)(C)C)C(=O)C(C(C)(C)C)=C6)c6cc(C(C)(C)C)c(O)c(C(C)(C)C)c6)cc5)c5nc(c(-c6ccc(C(=C7C=C(C(C)(C)C)C(=O)C(C(C)(C)C)=C7)c7cc(C(C)(C)C)c(O)c(C(C)(C)C)c7)cc6)c6ccc3[nH]6)C=C5)C=C4)cc2)c2cc(C(C)(C)C)c(O)c(C(C)(C)C)c2)C=C(C(C)(C)C)C1=O`, the GI50 in the assay on CCRF-CEM, with COLO 205, with HCC 2998, in the assay with HOP-62, with HT-29 and in the assay with IGROV-1 was > 100 µM (inactive) throughout. The GI50 with M14, with MDA-MB-231, in the assay on MOLT-4, in the assay on NCI-H460, in the assay with OVCAR-3 and in the assay on OVCAR-4 was > 100 µM (inactive) throughout. In addition, the GI50 in the assay with OVCAR-5, in the assay on OVCAR-8, with SK-MEL-28, in the assay with SNB-75, in the assay on SR and in the assay on SW-620 was > 100 µM (inactive) in each case. For the same compound, the GI50 with TK-10 and with UACC-62 was > 100 µM (inactive) in each case.
In the case of `COC1(OC)C=CC2C1C1C=CC2C1(OC)OC` (stereo not given), the GI50 with CCRF-CEM, in the assay with COLO 205, in the assay on HCC 2998, with HOP-62, with HT-29 and in the assay on IGROV-1 was > 100 µM (inactive) in each case. The GI50 in the assay on M14, in the assay with MDA-MB-231, in the assay on MOLT-4, with NCI-H460, with OVCAR-3 and with OVCAR-4 was > 100 µM (inactive) in each case. The GI50 with OVCAR-5, in the assay with OVCAR-8, with SK-MEL-28, with SNB-75, with SR and in the assay on SW-620 was > 100 µM (inactive) throughout. For the same compound, the GI50 in the assay on TK-10 and with UACC-62 was > 100 µM (inactive) each time.
Consider `CN(C)CCOC1(Cc2ccc(Cl)cc2Cl)CCC(C(C)(C)C)CC1` (stereo not given), for which the GI50 with CCRF-CEM is 1.86 µM (inactive); with COLO 205, 1.62 µM (inactive); in the assay with HCC 2998, 1.63 µM (inactive); with HOP-62 it was 1.74 µM (inactive); with HT-29, 1.52 µM (inactive); with IGROV-1 it was 3.44 µM (inactive). Besides, the GI50 in the assay on M14 was 1.79 µM (inactive); in the assay on MDA-MB-231, 7 µM (inactive); in the assay with MOLT-4, 1.86 µM (inactive); with NCI-H460, 1.66 µM (inactive); in the assay with OVCAR-3, 1.71 µM (inactive); with OVCAR-4, 1.81 µM (inactive). The GI50 with OVCAR-5 is 2.78 µM (inactive); with OVCAR-8, 1.94 µM (inactive); in the assay on SK-MEL-28 it was 1.65 µM (inactive); in the assay on SNB-75 it was 1.67 µM (inactive); in the assay on SR, 2.52 µM (inactive); in the assay on SW-620, 1.51 µM (inactive). The GI50 was 2.62 µM (inactive) with TK-10 and 2.12 µM (inactive) in the assay with UACC-62.
As for `NC(=O)NNCc1c(-c2ccccc2)no[n+]1[O-]`, the GI50 in the assay on CCRF-CEM, in the assay on COLO 205, with HCC 2998, in the assay with HOP-62, with HT-29 and in the assay on IGROV-1 was > 100 µM (inactive) in each case. Moreover, the GI50 in the assay on M14, in the assay with MDA-MB-231, in the assay with MOLT-4, with NCI-H460, in the assay on OVCAR-3 and with OVCAR-4 was > 100 µM (inactive) throughout. In addition, the GI50 with OVCAR-5, in the assay with OVCAR-8, with SK-MEL-28, with SNB-75, in the assay on SR and in the assay on SW-620 was > 100 µM (inactive) throughout. The GI50 in the assay on TK-10 and in the assay on UACC-62 was > 100 µM (inactive) each time.
With `CCCC(=O)Nc1cc(/C=C/C(=O)N2C[C@H]3C[C@@]34C2=CC(=O)c2[nH]cc(C)c24)n(C)c1`, the GI50 in the assay on CCRF-CEM, in the assay with COLO 205, in the assay on HCC 2998, in the assay with HOP-62, with HT-29 and with IGROV-1 was < 0.0025 µM (active) in each case. The GI50 with M14, with MDA-MB-231, with MOLT-4, in the assay on NCI-H460, with OVCAR-3 and in the assay on OVCAR-4 was < 0.0025 µM (active) each time. The GI50 with OVCAR-5, in the assay on OVCAR-8, with SK-MEL-28, in the assay on SNB-75, in the assay on SR and with SW-620 was < 0.0025 µM (active) in each case. For the same compound, the GI50 in the assay with TK-10 and with UACC-62 was < 0.0025 µM (active) in each case.
As to `CSc1ncc2c(C#N)c3sc4ccccc4n3c(=O)c2n1`, the GI50 was > 100 µM (inactive) in the assay with CCRF-CEM; > 100 µM (inactive) with COLO 205; > 100 µM (inactive) in the assay with HCC 2998; 30.4 µM (inactive) in the assay with HOP-62; > 100 µM (inactive) in the assay with HT-29; > 100 µM (inactive) in the assay with IGROV-1. For the same compound, the GI50 with M14 was > 100 µM (inactive); with MDA-MB-231, 41.1 µM (inactive); with MOLT-4, > 100 µM (inactive); with NCI-H460 it was 22.4 µM (inactive); in the assay with OVCAR-3, > 100 µM (inactive); in the assay on OVCAR-4, 45.8 µM (inactive). The GI50 in the assay with OVCAR-5 was > 100 µM (inactive); with OVCAR-8 it was 26.1 µM (inactive); in the assay with SK-MEL-28 it was > 100 µM (inactive); with SNB-75 it was 43.5 µM (inactive); in the assay with SR, 19.6 µM (inactive); with SW-620 it was 22 µM (inactive). Moreover, the GI50 in the assay on TK-10 is 61.1 µM (inactive); in the assay on UACC-62, > 100 µM (inactive).
For the compound `COC(=O)C(Cc1ccccc1)NC(=O)CCCNC(=O)OCc1ccccc1` (stereo not given), the GI50 in the assay on CCRF-CEM is 41 µM (inactive); with COLO 205, 77.4 µM (inactive); in the assay with HCC 2998, > 100 µM (inactive); in the assay with HOP-62 it was > 100 µM (inactive); with HT-29 it was > 100 µM (inactive); in the assay on IGROV-1 it was > 100 µM (inactive). For the same compound, the GI50 with M14 was 17.1 µM (inactive); in the assay with MDA-MB-231 it was > 100 µM (inactive); in the assay with MOLT-4 it was 29.2 µM (inactive); in the assay on NCI-H460 it was > 100 µM (inactive); with OVCAR-3, > 100 µM (inactive); with OVCAR-4 it was > 100 µM (inactive). In addition, the GI50 is > 100 µM (inactive) in the assay with OVCAR-5; > 100 µM (inactive) in the assay on OVCAR-8; 48.2 µM (inactive) with SK-MEL-28; > 100 µM (inactive) in the assay with SNB-75; 44.7 µM (inactive) in the assay on SR; > 100 µM (inactive) with SW-620. For the same compound, the GI50 is > 100 µM (inactive) in the assay on TK-10 and 49.9 µM (inactive) with UACC-62.
Consider `COc1cc2c(c(OC)c1OC)-c1ccc(SC)c(=O)cc1[C@@H](NC(=O)C(F)(F)F)CC2`, for which the GI50 is < 0.01 µM (active) in the assay on CCRF-CEM; < 0.01 µM (active) in the assay on COLO 205; < 0.01 µM (active) in the assay with HCC 2998; < 0.0103 µM (active) in the assay on HOP-62; < 0.01 µM (active) in the assay with HT-29; < 0.01 µM (active) in the assay with IGROV-1. Besides, the GI50 in the assay with M14 is < 0.01 µM (active); in the assay on MDA-MB-231, < 0.01 µM (active); in the assay on MOLT-4, < 0.01 µM (active); in the assay on NCI-H460 it was < 0.01 µM (active); with OVCAR-3, < 0.0158 µM (active); in the assay with OVCAR-4 it was 10.3 µM (inactive). Also, the GI50 in the assay on OVCAR-5 is 0.259 µM (active); with OVCAR-8, < 0.01 µM (active); with SK-MEL-28, 0.766 µM (active); in the assay on SNB-75, 0.019 µM (active); in the assay on SR, < 0.01 µM (active); in the assay with SW-620 it was < 0.01 µM (active). In addition, the GI50 is 8.63 µM (inactive) in the assay with TK-10 and < 0.0102 µM (active) with UACC-62.
